Measured values from patent publication US5668134A, “Method for preventing or reducing photosensitivity and/or phototoxicity reactions to medications” (priority 1994, dated 1997).
Counter-ions that a name gives are not always drawn.

Assays:
[1] = Pharmacokinetics of lomefloxacin in humans (general description); type: in vivo, human
[2] = test system: skin of healthy volunteers; conditions: in vivo
Source text: The relationship between plasma concentration at time of irradiation and delayed MEDUVA was explored using regression analysis by testing the equality of the slopes of the regression of delayed MEDUVA on plasma concentration, obtaining estimates of the parameters of the regression line, and determining the correlation coefficient.

With `CCn1cc(C(=O)O)c(=O)c2cc(F)c(N3CCNC(C)C3)c(F)c21` (racemic) [lomefloxacin HCl, monohydrochloride salt of (±)-1-ethyl-6,8-difluoro-1,4-dihydro-7-(3-methyl-1-piperazinyl)-4-oxo-3-quinolinecarboxylic acid] the “drug concentrations in many body tissues and fluids versus systemic circulation” value ([1]; 400 mg oral) was “comparable to or higher than drug concentrations in systemic circulation”, the absorption rate ([1]; healthy volunteers) was “rapidly absorbed” and the time to steady-state ([1]; healthy volunteers) was “by the end of the second day of dosing”. For the same compound, the “number of metabolites identified” value ([1]; human urine) was 5 metabolites, the dose excreted ([1]; human, feces, oral dose, read-out: unchanged drug recovered in the feces) was roughly 10% and the Tmax ([1]; human, serum, healthy volunteers, after dosing, read-out: time to peak serum concentrations) was 1 to 2 h. The metabolism ([1]; in vivo) was “minimally metabolized”, the route of elimination ([1]; in vivo) was “primarily eliminated by renal excretion” and the oral absorption ([1]; orally-administered) was “one hundred”. The “reduction in Minimum Erythema Dose from baseline at high plasma concentration” value [2] was “marked reduction in Minimum Erythema Dose from baseline” and the “reduction in Minimum Erythema Dose from baseline at low plasma concentration” value [2] was “no reduction in Minimum Erythema Dose from baseline”.
